Laboratory results as given in patent US9682928B2 (NeuroPro Therapeutics, Inc., priority 2009, dated 2017).
Values joined by “and” are separate entries in the source; they are usually repeats but may differ in a detail not shown here. Identical values can stand only once.

Assays:
Male Rj: NMRI mice = experiment: Formalin paw test (late phase) in the mouse; type: in vivo
Method: The method described herein detects analgesic/anti-inflammatory activity, generally used to test compounds for pain relief, in particular diabetic neuropathy or nociceptive neuropathy. See Wheeler-Aceto, et al. (1991) Psychopharmacology 104: 35-44.
Mice were given an intraplantar injection of 5% formalin (25 μl) into the posterior left paw. This treatment induces paw licking in control animals. Mice were briefly observed at 1 minute intervals between 15 and 50 minutes after the injection of formalin and the number of occasions that the mice were observed licking the injected paw was recorded. There were 10 mice per group and the test was performed “blind.”
The experiment included 11 groups. Data was analyzed by comparing treated groups with vehicle control using unpaired Mann-Whitney U tests.
Gabapentin (100 mg/kg i.p.) administered under the same experimental conditions, was used as reference substance. The experiment included several groups. Data was analyzed by comparing treated groups with vehicle control using unpaired Mann-Whitney U tests.

adult mice (C57/B16) = experiment: Mesial temporal lobe epilepsy model (mice), hippocampal discharges; type: in vivo, mouse; conditions: 50 mg/kg for NTP-2014 and NTP-2026; 150 mg/kg for NTP-2024, NTP-2006, NTP-1007, NTP-1003
Method: Antiepileptic protocol: Up to eight adult mice (C57/B16) are injected with kainate (1 nmol in 50 nl) and are implanted with a bipolar electrode in the dorsal hippocampus using stereotaxic techniques under general anesthesia. […] Drug conditions are counter-balanced, the animals being used as their own controls. Digital EEG recordings are performed in freely moving animals for 20 min pre-injection and 80 min post-injection. The effects of the injected compound are compared versus vehicle injections and reference period (pre-dose). Upon completion of the experiment, standard histological analysis are performed to verify electrode location, cell losses in CA1, CA3 and hilus, as well as dentate gyrus dispersion. Only animals with all characteristics of MTLE are used in data analysis. […] The results below are normalized to the pre-dose condition for each of the treatment group including DMSO and saline vehicle controls. Doses of test article compounds were 50 mg/kg for NTP-2014 and NTP-2026 and 150 mg/kg for NTP-2024, NTP-2006, NTP-1007, and NTP-1003. Therefore the bumetanide, furosemide, piretanide, azosemide, and torsemide esters and amide analogs described herein may be used in therapeutic methods to treat seizures.

Na+K+Cl− co-transporter = biological target: T1, Na+K+Cl− co-transporter (Rattus norvegicus, UniProt E9PTX9); experiment: Na+K+Cl− cotransporter assay, 86Rb uptake in A7r5 cells; type: cell-based; conditions: 10 minutes at 37° C.
T1 construct: endogenous in cells; host or cells: A7r5 cells
T1 sequence (E9PTX9 1-1203): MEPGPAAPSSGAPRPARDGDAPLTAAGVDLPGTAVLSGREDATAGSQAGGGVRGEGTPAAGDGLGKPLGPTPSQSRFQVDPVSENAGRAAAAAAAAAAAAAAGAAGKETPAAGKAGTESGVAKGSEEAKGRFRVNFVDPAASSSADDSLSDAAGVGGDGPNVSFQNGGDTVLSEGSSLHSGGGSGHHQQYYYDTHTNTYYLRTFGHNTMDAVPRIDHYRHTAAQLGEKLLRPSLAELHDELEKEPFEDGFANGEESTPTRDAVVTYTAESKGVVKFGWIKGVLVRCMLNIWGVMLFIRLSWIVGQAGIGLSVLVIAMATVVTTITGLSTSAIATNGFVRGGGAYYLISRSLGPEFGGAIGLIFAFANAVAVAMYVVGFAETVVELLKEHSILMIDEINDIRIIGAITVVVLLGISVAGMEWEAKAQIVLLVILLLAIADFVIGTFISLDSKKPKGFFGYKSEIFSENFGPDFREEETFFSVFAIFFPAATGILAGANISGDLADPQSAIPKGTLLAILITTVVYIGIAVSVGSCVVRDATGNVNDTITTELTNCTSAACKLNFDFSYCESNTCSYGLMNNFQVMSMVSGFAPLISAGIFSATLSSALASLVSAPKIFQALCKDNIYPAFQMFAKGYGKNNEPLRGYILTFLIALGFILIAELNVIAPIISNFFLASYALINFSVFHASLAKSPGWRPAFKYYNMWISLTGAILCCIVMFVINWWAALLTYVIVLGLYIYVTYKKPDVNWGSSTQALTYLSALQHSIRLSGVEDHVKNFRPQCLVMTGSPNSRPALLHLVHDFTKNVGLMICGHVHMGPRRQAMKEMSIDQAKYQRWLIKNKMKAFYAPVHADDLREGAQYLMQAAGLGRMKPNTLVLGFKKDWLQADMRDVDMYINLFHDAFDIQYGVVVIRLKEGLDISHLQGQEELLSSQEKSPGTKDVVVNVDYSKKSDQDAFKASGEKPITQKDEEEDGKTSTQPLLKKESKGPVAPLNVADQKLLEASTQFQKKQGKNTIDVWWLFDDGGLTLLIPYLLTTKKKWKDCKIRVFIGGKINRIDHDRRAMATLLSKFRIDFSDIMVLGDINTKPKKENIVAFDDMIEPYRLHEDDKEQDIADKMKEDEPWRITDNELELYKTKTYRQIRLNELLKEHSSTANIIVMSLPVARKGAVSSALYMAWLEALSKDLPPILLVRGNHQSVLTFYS
Method: Na^+K^+Cl^− co-transporter activity was measured in vitro in A7r5 cells by measuring their uptake of ^86Rb (0.2 μCi) in 10 minutes at 37° C. as detected by scintillation counting. See Chassande, et al. (1988) “The Na^+/K^+/Cl^− Cotransport in C6 glioma cells. Properties and role in volume regulation.” Eur. J. Biochem. 171: 425433.

[1] = Blood levels in rat following IP administration; type: in vivo
[2] = Brain levels in rat following IP administration; type: in vivo; conditions: NTP-2006 100 mg/kg IP, PBx pretreated
[3] = biological target: T2, α1β3γ2 GABAA receptor isoform (Homo sapiens, UniProt P14867+P18507+P28472); experiment: Whole-cell patch clamp, transfected HEK-293T cells; type: cell-based, rat or human; conditions: FIG. 36
T2 construct: expressed in transfected cells; host or cells: HEK-293T, transient transfection
T2 sequence (P14867 28-456): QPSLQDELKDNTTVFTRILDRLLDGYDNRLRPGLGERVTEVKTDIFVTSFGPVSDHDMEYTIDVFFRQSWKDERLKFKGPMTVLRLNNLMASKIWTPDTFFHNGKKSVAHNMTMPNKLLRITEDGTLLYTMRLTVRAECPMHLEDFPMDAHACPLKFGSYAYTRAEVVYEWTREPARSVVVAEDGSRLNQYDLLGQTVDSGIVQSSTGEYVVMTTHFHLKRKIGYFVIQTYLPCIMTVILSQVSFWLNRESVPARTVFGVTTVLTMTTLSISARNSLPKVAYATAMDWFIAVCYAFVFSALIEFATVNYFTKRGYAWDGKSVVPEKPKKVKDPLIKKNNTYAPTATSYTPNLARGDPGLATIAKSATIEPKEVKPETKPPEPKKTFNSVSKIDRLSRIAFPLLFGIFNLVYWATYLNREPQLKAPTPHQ
T2 sequence (P28472 26-473): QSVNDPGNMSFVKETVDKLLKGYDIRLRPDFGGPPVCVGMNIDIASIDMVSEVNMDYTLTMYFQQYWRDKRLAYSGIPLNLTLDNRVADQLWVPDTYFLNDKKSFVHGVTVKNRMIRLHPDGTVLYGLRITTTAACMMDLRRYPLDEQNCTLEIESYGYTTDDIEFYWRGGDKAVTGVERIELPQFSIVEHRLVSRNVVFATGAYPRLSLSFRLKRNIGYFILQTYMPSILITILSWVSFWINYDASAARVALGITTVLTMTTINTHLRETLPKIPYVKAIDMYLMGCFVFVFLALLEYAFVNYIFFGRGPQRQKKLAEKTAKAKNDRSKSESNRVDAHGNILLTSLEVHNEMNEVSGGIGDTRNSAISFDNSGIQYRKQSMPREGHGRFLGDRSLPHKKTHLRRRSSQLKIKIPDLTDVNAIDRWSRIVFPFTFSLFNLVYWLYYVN
T2 sequence (P18507 40-475): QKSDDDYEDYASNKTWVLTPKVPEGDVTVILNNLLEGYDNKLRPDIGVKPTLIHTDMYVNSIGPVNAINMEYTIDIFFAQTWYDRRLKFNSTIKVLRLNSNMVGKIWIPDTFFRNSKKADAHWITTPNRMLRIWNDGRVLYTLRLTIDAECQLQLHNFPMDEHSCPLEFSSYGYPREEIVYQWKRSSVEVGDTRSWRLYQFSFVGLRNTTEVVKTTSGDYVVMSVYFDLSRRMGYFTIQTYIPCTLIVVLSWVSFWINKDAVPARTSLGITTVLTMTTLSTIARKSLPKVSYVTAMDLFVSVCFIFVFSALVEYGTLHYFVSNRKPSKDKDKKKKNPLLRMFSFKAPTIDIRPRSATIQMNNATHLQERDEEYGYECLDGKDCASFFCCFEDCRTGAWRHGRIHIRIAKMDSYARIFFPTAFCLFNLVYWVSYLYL
Method: The addition of GABA to […] activates the recombinant expressed GABAA receptors, creating an ion movement through the ion channel in the GABAA receptor. The electrical current generated by the movement of chloride ions into the cells can be quantified.
HEK-293T cells were transiently transfected with rat or human GABAA receptor subunits. Whole-cell patch clamp recording was performed at −50 mV unless otherwise indicated. Test compounds was diluted from a freshly made stock in DMSO, GABA was prepared from a frozen stock. For each experiment GABA or GABA+a test compound was applied for 5 seconds, and the electrical current generated by the movement of chloride ions into the cells was measured and recorded as a trace of current versus time.
Compounds described herein (e.g., NTP-2014) were tested at high and low GABA concentrations against multiple GABAA receptor isoforms (e.g., α1β3γ2, α2β3 γ2, α3β3γ2, α3β3γ2, α4β3γ2, α5β3γ2, α6β3γ2). […] NTP-2014 inhibits the currents in the parasynaptic α4 GABAA receptor isoform in GABAergic interneurons. […]

CCCCNc1cc(C(=O)OCC(=O)N(CC)CC)cc(S(N)(=O)=O)c1Oc1ccccc1 [NTP-2006, N,N-Diethylaminocarbonylmethyl 3-Aminosulfonyl-5-butylamino-4-phenoxybenzoate]
Licking Score % Pain Decrease (Male Rj: NMRI mice; 50 μmol/kg i.p.): 40.0%
Licking Score % Pain Decrease (Male Rj: NMRI mice; 250 μmol/kg i.p.): 61%
Licking Score % Pain Decrease (Male Rj: NMRI mice; 500 μmol/kg i.p.): 60%
Anti-inflammatory and analgesic effects in formalin paw test (FIG. 16) (Male Rj: NMRI mice; 50, 250, 500 μmole/kg): show anti-inflammatory and analgesic effects
Licking Score (15 to 50 minutes post-formalin injection) % Change from Control (Male Rj: NMRI mice; i.p. 30 minutes before the test, 50 μmol/kg (NTP-2006 23.9, NTP-2024 21.7, NTP-1007 19.3, NTP-2014 21, NTP-2026 23.1 mg/kg)): −40%
Licking Score (15 to 50 minutes post-formalin injection) % Change from Control (Male Rj: NMRI mice; i.p., 250 μmol/kg (NTP-2006 119, NTP-2024 108, NTP-1007 96.5, NTP-2014 105, NTP-2026 116 mg/kg)): −61%
Licking Score (15 to 50 minutes post-formalin injection) % Change from Control (Male Rj: NMRI mice; i.p., 500 μmol/kg (NTP-2006 239, NTP-2024 217, NTP-1007 193, NTP-2014 210, NTP-2026 231 mg/kg)): −60%
Cumulative duration of hippocampal discharges (adult mice (C57/B16)): decreased
Number of hippocampal discharges (adult mice (C57/B16)): decreased
inhibition at 10 µM (Na+K+Cl− co-transporter; read-out: % Inhibition of Control Values): 50%
remaining activity at 10 µM (Na+K+Cl− co-transporter; read-out: % of Control Value): 49.6%
Concentration of NTP-2006 in rat blood ([1]; NTP-2006 100 mg/kg IP, PBx pretreated, 15 m): 2.008 ng/mL and 1.728 ng/mL
Concentration of NTP-2006 in rat blood ([1]; NTP-2006 100 mg/kg IP, PBx pretreated, 1 h): BLQ (Below Limit of Quantitation (<1 ng/ml))
Concentration of NTP-2006 in rat blood ([1]; NTP-2006 100 mg/kg IP, PBx pretreated, 2 h): BLQ (Below Limit of Quantitation (<1 ng/ml))
Concentration of NTP-2006 in rat blood ([1]; NTP-2006 100 mg/kg IP, PBx pretreated, 4 h): BLQ (Below Limit of Quantitation (<1 ng/ml))
Concentration of NTP-2006 in rat blood ([1]; NTP-2006 100 mg/kg IP, PBx pretreated, 6 h): BLQ (Below Limit of Quantitation (<1 ng/ml))
Degradation to bumetanide in the blood ([1]; i.p., rats): degrades into bumetanide
concentration at 15 min ([1]; rat, whole blood, intraperitoneal, 100 mg/kg, NTP-2006 100 mg/kg IP, PBx pretreated, 15 m): 3.32 ng/mL
concentration at 30 min ([1]; rat, whole blood, intraperitoneal, 100 mg/kg, NTP-2006 100 mg/kg IP, PBx pretreated, 30 m): 3.35 ng/mL
Concentration of NTP-2006 in rat brain ([2]; 15 m): 5.259 ng/mL and 2.937 ng/mL
Concentration of NTP-2006 in rat brain ([2]; 6 h): 1.523 ng/mL and 1.572 ng/mL
concentration at 15 min ([2]; rat, brain, intraperitoneal, 100 mg/kg, 15 m): 2.95 ng/mL
concentration at 6 h ([2]; rat, brain, intraperitoneal, 100 mg/kg, 6 h): 1.88 ng/mL

CN1C(=O)CC(=O)N(c2ccccc2)c2cc(Cl)ccc21 [clobazam]
Effect on inhibitory currents in α1 subunit containing GABAA receptors [3]: increase both the amplitude and time course of inhibitory currents

CN1C(=O)CN=C(c2ccccc2)c2cc(Cl)ccc21 [diazepam]
Effect on inhibitory currents in α1 subunit containing GABAA receptors [3]: increase both the amplitude and time course of inhibitory currents

Cc1ccc(-c2nc3ccc(C)cn3c2CC(=O)N(C)C)cc1 [zolpidem]
Effect on inhibitory currents in α1 subunit containing GABAA receptors [3]: increase both the amplitude and time course of inhibitory currents
